Earlier results on 14 molecules are cited in patent US8440424B2, “Identification of antibiotic resistance using labelled antibiotics” (miacom Diagnostics GmbH, priority 2008, dated 2013).

The test system of this series is 23S rRNA. To be noted: cited from earlier work.
[1] abbreviates: 23S rRNA position 2611 "C to G", Chlamydomonas reinhardtii, Harris et al. 1989.
Setting [2] is: 23S rRNA position 2611 "C to U", Chlamydomonas reinhardtii, Harris et al. 1989.

Structures are written as SMILES. Where two headings read alike, the source gives them in different places. Positions of bridges follow the written chain, without caps; N, C: chain ends. Non-standard residues stand in square brackets, D forms with d. Residues, ends and D or L forms follow the SMILES beside them. *: point of attachment. NMePhe(4-NMe2) = CN[C@@H](Cc1ccc(N(C)C)cc1)C(=O)O; Pip(4-oxo) = O=C1CCN[C@H](C(=O)O)C1; Picolinoyl(3-OH) = O=C(c1ncccc1O)*; Phg = N[C@H](C(=O)O)c1ccccc1; dAbu = CC[C@@H](N)C(=O)O

Turning to `CSC[S@+]([O-])C[C@H](CO)NC(=O)/C=C/c1c(C)[nH]c(=O)[nH]c1=O` [Sparsomycin], the Phenotype result (23S rRNA position 2499 C to U, Halobacterium halobium, Tan 1996) is “resistance”.

On to `C=C(NC(=O)C(=C)NC(=O)c1csc(C2=N[C@@H]3c4csc(n4)[C@H]4NC(=O)c5csc(n5)[C@H]([C@](C)(O)[C@@H](C)O)NC(=O)[C@H]5CSC(=N5)/C(=C/C)NC(=O)[C@H]([C@@H](C)O)NC(=O)c5csc(n5)[C@]3(CC2)NC(=O)[C@H](C)NC(=O)C(=C)NC(=O)[C@H](C)NC(=O)[C@H]([C@@H](C)CC)N[C@@H]2C=Cc3c([C@H](C)O)cc(nc3[C@H]2O)C(=O)O[C@@H]4C)n1)C(N)=O` [thiostrepton], for which, under “23S rRNA position 1056 G to C, E. coli”, the “Phenotype: binding in RNA fragments” value is on record as “weakened in RNA”. Further, the “Phenotype: drug binding affinity” value is, setting by setting: (23S rRNA position 1067 A to C, E. coli) “affinity is reduced similarly”; (23S rRNA position 1067 A to G, E. coli) “affinity is reduced similarly”; (23S rRNA position 1067 A to U, E. coli) “affinity is reduced similarly”. Also, the “Phenotype: thiostrepton resistance in poly (U) translation” value (23S rRNA position 1067 A to U, E. coli, mutant constituted 30% of the total 23S rRNA pool in the ribosomes) is listed as “ribosomes; exhibited 30%”.

For `CC[C@H]1OC(=O)[C@H](C)[C@@H](O[C@H]2C[C@@](C)(OC)[C@@H](O)[C@H](C)O2)[C@H](C)[C@@H](O[C@@H]2O[C@H](C)C[C@H](N(C)C)[C@H]2O)[C@](C)(O)C[C@@H](C)C(=O)[C@H](C)[C@@H](O)[C@]1(C)O` [Ery], the Phenotype result by setting is: (23S rRNA double mutation (A2058U/G2032A), E. coli) “hs”; (23S rRNA double mutation (G2032A/A2058U), E. coli) “hs”; (23S rRNA double mutation (G2057A/C2661U), E. coli) “Slightly Eryr;”; under setting [1], “Eryr”; under setting [2], “Eryr”; (23S rRNA position 2611 "C to U", double mutation (C2611U/G2057A), E. coli, Vester et al. 1995) “Slightly Eryr; reduced”.

Consider `CC[C@H]1OC(=O)[C@H](C)[C@@H](O[C@H]2C[C@@](C)(OC)[C@@H](O)[C@H](C)O2)[C@H](C)[C@@H](O[C@@H]2O[C@H](C)C[C@H](N(C)C)[C@H]2O)[C@](C)(OC)C[C@@H](C)C(=O)[C@H](C)[C@@H](O)[C@]1(C)O` [Clarithomycin], for which the Phenotype entry (23S rRNA position 2059 A to G, Helicobacter pylori) is given as “resistance”.

As to `O=C(N[C@H](CO)[C@H](O)c1ccc([N+](=O)[O-])cc1)C(Cl)Cl` [chloramphenicol], the Phenotype entry (23S rRNA position 2505 G to A, E. coli, Hansen 1999) is on record as “Conferred resistance to”.

On to `CC[C@H]1NC(=O)[C@@H](NC(=O)c2ncccc2O)[C@@H](C)OC(=O)[C@H](c2ccccc2)NC(=O)[C@@H]2CC(=O)CCN2C(=O)[C@H](Cc2ccc(N(C)C)cc2)N(C)C(=O)[C@@H]2CCCN2C1=O` [pristinamycin 1A] ({Picolinoyl(3-OH)}-T[dAbu]P[NMePhe(4-NMe2)][Pip(4-oxo)][Phg]; ester 1-C), for which the Phenotype result is, setting by setting: (23S rRNA A2602C/C2501A, E. coli, binding on peptidyl transferase loop, Porse 1999) “Inhibits binding of 1A”; (23S rRNA U2500A/C2501A, E. coli, binding on peptidyl transferase loop, Porse 1999) “Inhibits binding of 1A”.

Regarding `COc1ccc(C[C@H]2NC[C@H](O)[C@H]2OC(C)=O)cc1` [Anisomycin], the Phenotype result by setting is: (23S rRNA position 2447 G to C, Halobacterium halobium, Hummel 1987) “resistance”; (23S rRNA position 2453 A to C, Halobacterium halobium, Hummel 1987) “Anisomycin resistance”.

Take `O=C(N[C@H](CO)[C@H](O)c1ccc([N+](=O)[O-])cc1)C(Cl)Cl` [Chloramphenicol]: the Phenotype entry is, setting by setting: (23S rRNA position 2061 G to A, Rat mitochondria) “resistance”; (23S rRNA position 2062 A to C, Halobacterium halobium) “resistance”; (23S rRNA position 2447 G to A, Yeast mitochondria, Dujon 1980) “resistance”; (23S rRNA position 2451 A to U, Mouse mitochondria, Kearsey 1981) “resistance”; (23S rRNA position 2452 C to A, Human mitochondria, Blanc 1981) “resistance”; (23S rRNA position 2452 C to U, Halobacterium halobium, Mankin 1991) “resistance”. In addition, the Phenotype result reads like this: (23S rRNA position 2452 C to U, Mouse mitochondria, Slott 1983) “resistance”; (23S rRNA position 2503 A to C, Yeast mitochondria, Dujon 1980) “resistance”; (23S rRNA position 2504 U to C, Human mitochondria, Kearsey 1981) “resistance”; (23S rRNA position 2504 U to C, Mouse mitochondria, Blanc 1981) “resistance”.

In the case of `C[C@H]1O[C@H](O[C@H]2CC[C@H](n3ccc(NC(=O)c4ccc(NC(=O)[C@@](C)(N)CO)cc4)nc3=O)O[C@@H]2C)[C@H](O)[C@@H](O)[C@@H]1N(C)C` [Amicetin], the Phenotype result by setting is: (23S rRNA position 2438 U to A, Halobacterium halobium, Leviev 1994) “Amicetin resistance”; (23S rRNA position 2438 U to C, Halobacterium halobium, Leviev 1994) “Amicetin resistance”.

With `COc1ccc(C[C@H]2NC[C@H](O)[C@H]2OC(C)=O)cc1` [Animosycin], the Phenotype result is, setting by setting: (23S rRNA position 2452 C to U, Halobacterium, Hummel 1987) “Animosycin resistance”; (23S rRNA position 2452 C to U, Tetrahymena thermophilia, Sweeney 1991) “Animosycin resistance”.

In the case of `CC[C@H]1OC(=O)[C@H](C)[C@@H](O[C@H]2C[C@@](C)(OC)[C@@H](O)[C@H](C)O2)[C@H](C)[C@@H](O[C@@H]2O[C@H](C)C[C@H](N(C)C)[C@H]2O)[C@](C)(O)C[C@@H](C)C(=O)[C@H](C)[C@@H](O)[C@]1(C)O` [Erythromycin], the Phenotype result by setting is: (23S rRNA double deletion (1230/1231), E. coli) “Erythromycin sensitive. a Double”; (23S rRNA double mutant (C1207U/C1243U), E. coli) “Erythromycin resistant. a Double”; (23S rRNA double mutant (C1208U/C1243U), E. coli) “Erythromycin resistant. a Double”; (23S rRNA double mutant (C1211U/C1208U), E. coli) “Erythromycin sensitive. a Double”; (23S rRNA double mutant (C1221U/C1229U), E. coli) “Erythromycin resistant. a Double”; (23S rRNA double mutant (C1221U/C1233U), E. coli) “Erythromycin resistant. a Double”. In addition, the Phenotype result (23S rRNA double mutant (C1243U/C1221U), E. coli) is “Erythromycin resistant. a Double”; the Phenotype entry (23S rRNA double mutant (G1220A/G1239A), E. coli) is on record as “Erythromycin resistant. a Double”; the Phenotype entry (23S rRNA double mutant (G1232A/G1238A), E. coli) is “Erythromycin sensitive. a Double”; the Phenotype result (23S rRNA position 1233 C to U, E. coli) is on record as “Erythromycin sensitive. a”; the Phenotype entry (23S rRNA position 1234 U to C, E. coli) is “Erythromycin sensitive. a”; the Phenotype entry (23S rRNA position 1234 del1234/del1235, double mutant (U1234C/del1235), E. coli) was “Erythromycin sensitive. a Double”. For the same molecule, the Phenotype result by setting is: (23S rRNA position 2058 A to G, Yeast mitochondria) “resistance”; (23S rRNA position 2611 "C to G", Chlamydomonas reinhardtii, Gauthier et al. 1988) “spiramycin resistance”; (23S rRNA position 2611 "C to G", Yeast mitochondria, Sor and Fukahara 1984) “spiramycin resistance”.

As for `CCC[C@@H]1C[C@@H](C(=O)N[C@@H]([C@H]2O[C@H](SC)[C@H](O)[C@@H](O)[C@H]2O)[C@@H](C)O)N(C)C1` [lincomycin], the Phenotype result reads like this: under setting [1], “low level”; under setting [2], “low level”.

For the molecule `CC[C@H]1OC(=O)[C@H](C)[C@@H](O[C@H]2C[C@@](C)(OC)[C@@H](O)[C@H](C)O2)[C@H](C)[C@@H](O[C@@H]2O[C@H](C)C[C@H](N(C)C)[C@H]2O)[C@](C)(O)C[C@@H](C)C(=O)[C@H](C)[C@@H](O)[C@]1(C)O` [erythromycin], the Phenotype entry by setting is: (23S rRNA double mutant (A1262G/U2017C), E. coli, growth on erythromycin) “Wild-type growth on”; (23S rRNA double mutant (A1262U/U2017A), E. coli, growth on erythromycin) “Wild-type growth on”; (23S rRNA double mutant (G1137A/G1138C), E. coli, with 2058G and erythromycin, expressed from rrnB promoter) “lethal when expressed from rrnB”; (23S rRNA position 1068 G to A, E. coli, with 2058G, expressed from rrnB or pL promotor in presence of erythromycin) 2058G) Lethal when; (23S rRNA position 1072 C to U, E. coli, expressed from rrnB or pL promotor in presence of erythromycin) “Lethal when expressed from”; (23S rRNA position 1137 G to A, E. coli, with 2058G and erythromycin, expressed from rrnB promoter) “lethal when expressed from rrnB”. Besides, the Phenotype result was “lethal when expressed from rrnB” (23S rRNA position 1138 G to C, E. coli, with 2058G and erythromycin, expressed from rrnB promoter); “With erythromycin; lethal” (23S rRNA position 1262 A to C, E. coli, with erythromycin); “With erythromycin; lethal” (23S rRNA position 1262 A to G, E. coli, with erythromycin).

Regarding `CSC[S@+]([O-])C[C@H](CO)NC(=O)/C=C/c1c(C)[nH]c(=O)[nH]c1=O` [sparsomycin], the “Phenotype (level of resistance)” value (23S rRNA position 2452 C to U, Halobacterium halobium, Tan 1996) is on record as “Low level sparsomycin”.
